Data taken from patent US8197860B2, “Method for enhancing nutrient absorption with astragalosides” (Nuliv Holding Inc., priority 2005, dated 2012).

How the values were obtained:
Format in all cases: cell-based, human
[1] = test system: Caco-2 cell monolayer; experiment: Tryptophan absorption assay (transport across Caco-2 cell monolayer); set-up: key to * (regulatory effect on tryptophan transport): ↑: the arrows that point up represent the enhancing effect on the tryptophan transport; details: for Regulatory effects on the tryptophan transport across the Caco2 cell monolayer: Table 4 summary
Experimental: (§1) To evaluate the effect of the isolated astragaloside compound on the uptake of nutrient substances across the intestinal lumen, Caco-2 cells were grown on permeable filter as an experimental model. Caco2 cells originate from human colonic adenocarcinoma and spontaneously differentiate into an enterocyte-like phenotype after two weeks. The Caco-2 cell line, derived from a human colorectal carcinoma, has been used as an in vitro model system for studying drug absorption in gastrointestinal tract. These cells form monolayers with well-developed tight-junctions, and have been evaluated in details as an in vitro model to study both transcellular transport of nutrients and drugs in intestinal lumen.
(§2) Caco-2 cells were obtained from the ATCC (American Type Culture Collection). The cells were maintained in Dulbecco's modified Eagle medium (DMEM) containing 4.5 g/L glucose and 25 mM Hepes, supplemented with 10% fetal calf serum, 100 U/mL penicillin G and […]. The medium was changed every second day. The cells were routinely checked for Mycoplasma in monthly intervals. Caco-2 cells were cultured on semi-permeable membranes to differentiate into a highly functionalized epithelial barrier with remarkable morphological and biochemical similarity to the small intestinal columnar epithelium. The Caco-2 cell monolayers could therefore be used to study the membrane transport properties of many compounds. To trypsinize the cells, the culture dish was washed once with phosphate-buffered saline (PBS) followed by adding trypsine-EDTA for 10 minutes. The trypsinized cells were separated and filtered into single cells using a 35-μm strainer cap (Falcon 2235) before being seeded for further experiments.
(§3) In measuring transport of arginine across the Caco-2 cell monolayer, both sides of the transwells were washed with arginine incubation buffer consisting of: 137 mM NaCl, 10 mM Hepes, 0.3 mM NaH2PO4, 0.3 mM K2HPO4, 5.4 mM KCl, 2.8 mM CaCl2, 1 mM MgSO4, 10 mM glucose, adjusted to pH 7.4. Then, the cell layer was preincubated in the incubation buffer at 37° C. for 1 h. The volume of incubation buffer was 0.2 mL and 0.9 mL in the apical and basolateral chambers, respectively. The cells were replaced with fresh incubation medium in both chambers prior to the transport experiment. The transport experiment was initiated by replacing the incubation solution on the apical side with solution containing 10 mM of L-arginine in which 0.125 μCi/mL of L-[^3H]-arginine was included. At designated time intervals, 10 μL-solution samples were removed from the basolateral side and radioactivity of each sample was counted using a microplate liquid scintillation counter (TopCount, Packard NXT). During the experiment, when a 10 μL-solution sample was removed from the basolateral side every time, 10 μL buffer was supplemented to keep the volume constant. The uptake of [^3H]-mannitol was used to correct for nonspecific transport of molecules across the monolayer membrane. Results were expressed as the nanomoles of arginine transport across the Caco-2 cell monolayers with respect to time in minutes (nmol/min).
The experimental procedures similar to those in Example 2 were used for measuring the uptake of tryptophan molecules across the Caco-2 membrane, except using a tryptophan incubation buffer consisting of 137 mM choline chloride, 10 mM Hepes, 0.6 mM KH2PO4, 5.4 mM KCl, 2.8 mM CaCl2, 1 mM MgSO4, and 10 mM glucose, and having its pH adjusted to 7.4. Results were expressed as the nanomoles of tryptophan transport across the Caco-2 cell monolayers with respect to time in minutes (nmol/min).

[2] = test system: Caco2 cells; experiment: Folate uptake assay; set-up: key to * (regulatory effect on folate uptake): ↑: the arrows that point up represent the enhancing effect on folate uptake; details: for * (regulatory effect on folate uptake) / Percentage (folate uptake vs own control) / Uptake rate (folate): compound 0.1 μM; for Uptake rate (folate): 2 days, 5 μM folate, pH 6.0
Experimental: as §1, §2
(§4) Caco-2 cells (5×10^4) were seeded in a 48-well plate and maintained in culture medium (DMEM with 10% FBS, 1% nonessential amino acids, L-glutamine, penicillin G (100 U/mL), streptomycin (10 μg/mL), and amphotericin B (2.5 μg/mL) in a 37° C. incubator for 10 days for the cells to differentiate. The culture medium was changed once every two days. The cells were then washed with PBS before replenishing with the culture medium containing 5% FBS and various astragalosides at the indicated concentrations (0.01, 0.1 and 1 μM) for 48 hours. The Caco2 cells were washed out of remaining glucose with PBS and replaced in the glucose buffer (80 mM NaCl, 100 mM mannitol, 20 mM Tris-HCl, pH 7.4, 3 mM K2HPO4, 1 mM CaCl2, 1 mg/mL BSA) for 1 hour. Glucose uptake was initiated by replacing the glucose buffer with 0.2 ml of glucose buffer containing 2 μCi/mL of ^14C-glucose and unlabeled cold glucose to give a final glucose concentration of 25 mM. Glucose uptake was stopped by removing the glucose buffer and washing with PBS at designated time intervals. The cells were lysed in 0.2 mL of 0.2 N NaOH, and 20 μL of the cell lysate were transferred to the filter-bottomed UniFilter plates (Perkin-Elmer, Wellesley, Mass., USA) and dried in a vacuum oven at 37° C. The bottom of the UniFilter plate was sealed and 25 μL of the counting solution were added into each well. Adhesive plate sealers were used in place of the lids and radioactivity of each sample was counted using the microplate liquid scintillation counter (TopCount, Packard NXT, Packard BioScience Company, Meriden, Conn., USA). The amount of glucose accumulated in the cells was calculated and normalized to protein concentration, and uptake rate was expressed as nanomoles of glucose per minutes per milligram of cell protein (nmol/min/mg). Protein concentration was determined by a standard Bicinchoninic acid (BCA) protein assay. Nonspecific glucose uptake was measured by adding 2 μCi of L-[^14C]-glucose and subtracting from each determination to obtain specific glucose uptake.
The Caco2 cells were subjected to folate uptake test in a manner similar to that described in the glucose uptake assay in Example 1 above. […]

[3] = test system: Caco-2 cell monolayer; experiment: Arginine absorption assay (transport across Caco-2 cell monolayer); set-up: key to * (regulatory effect on arginine transport): ↑: the arrows that point up represent the enhancing effect on the arginine transport; details: for Regulatory effects on the arginine transport across the Caco2 cell monolayer: Table 3 summary; for Transport rate (arginine): 10 mM L-arginine apical
Experimental: as §1, §2, §3

[4] = test system: Caco2 cells; experiment: Glucose uptake assay; set-up: key to * (regulatory effect on glucose uptake): ↑: the arrows that point up represent the enhancing effect on the glucose uptake; details: for Regulatory effects on the glucose uptake of the Caco2 cells: Table 2 summary; for Uptake rate (glucose): 48 hours, 25 mM glucose
Experimental: as §1, §2, §4

CC(=O)O[C@@H]1[C@@H](O)[C@H](O[C@H]2CC[C@]34C[C@]35CC[C@]3(C)[C@@H]([C@@]6(C)CC[C@@H](C(C)(C)O)O6)[C@@H](O)C[C@@]3(C)[C@@H]5C[C@H](O[C@@H]3O[C@H](CO)[C@@H](O)[C@H](O)[C@H]3O)[C@H]4C2(C)C)OC[C@H]1O [IsoAS2, isoastragaloside II]
Regulatory effects on the tryptophan transport across the Caco2 cell monolayer [1]: had regulatory effects on the tryptophan transport
* (regulatory effect on tryptophan transport) ([1]; compound 0.01 μM): ↑
Percentage (tryptophan transport, control = 100) ([1]; compound 0.01 μM): 145.38%
Transport rate (tryptophan) ([1]; compound 0.01 μM): 13.000 ± 0.5547 nmol/min
* (regulatory effect on tryptophan transport) ([1]; compound 0.1 μM): ↑
Percentage (tryptophan transport, control = 100) ([1]; compound 0.1 μM): 146.05%
Transport rate (tryptophan) ([1]; compound 0.1 μM): 13.060 ± 0.5530 nmol/min
* (regulatory effect on tryptophan transport) ([1]; compound 1 μM): ↑
Percentage (tryptophan transport, control = 100) ([1]; compound 1 μM): 224.45%
Transport rate (tryptophan) ([1]; compound 1 μM): 20.070 ± 0.1931 nmol/min
Tryptophan transport rate ([1]; concentration from 0.01 μM to 1 mM): increased
* (regulatory effect on folate uptake) [2]: ↑
Percentage (folate uptake vs own control) [2]: 162.87%
Uptake rate (folate) [2]: 86.63 ± 2.82 pmol/mg/min
Regulatory effects on the arginine transport across the Caco2 cell monolayer [3]: had regulatory effects on the arginine transport
* (regulatory effect on arginine transport) ([3]; compound 0.01 μM): ↑
Percentage (arginine transport, control = 100) ([3]; compound 0.01 μM): 138.11%
Transport rate (arginine) ([3]; compound 0.01 μM): 14.7577 ± 0.2837 nmol/min
* (regulatory effect on arginine transport) ([3]; compound 0.1 μM): ↑
Percentage (arginine transport, control = 100) ([3]; compound 0.1 μM): 132.01%
Transport rate (arginine) ([3]; compound 0.1 μM): 14.1059 ± 0.1815 nmol/min
* (regulatory effect on arginine transport) ([3]; compound 1 μM): ↑
Percentage (arginine transport, control = 100) ([3]; compound 1 μM): 118.40%
Transport rate (arginine) ([3]; compound 1 μM): 12.6518 ± 0.3680 nmol/min
Arginine transport rate ([3]; concentration from 0.01 μM to 1 μM): increased
Regulatory effects on the glucose uptake of the Caco2 cells [4]: had regulatory effects on the glucose uptake
* (regulatory effect on glucose uptake) ([4]; compound 0.01 μM): ↑
Percentage (glucose uptake, control = 100) ([4]; compound 0.01 μM): 115.69%
Uptake rate (glucose) ([4]; compound 0.01 μM): 7.3720 ± 2.5700 nmol/mg/min
* (regulatory effect on glucose uptake) ([4]; compound 0.1 μM): ↑
Percentage (glucose uptake, control = 100) ([4]; compound 0.1 μM): 107.05%
Uptake rate (glucose) ([4]; compound 0.1 μM): 6.8210 ± 1.6630 nmol/mg/min
Percentage (glucose uptake, control = 100) ([4]; compound 1 μM): 96.55%
Uptake rate (glucose) ([4]; compound 1 μM): 6.1520 ± 2.4610 nmol/mg/min

CC(=O)OC1C(O)COC(OC2CCC34CC35CCC3(C)C(C6(C)CCC(C(C)(C)O)O6)C(O)CC3(C)C5CC(OC3OC(CO)C(O)C(O)C3O)C4C2(C)C)C1OC(C)=O (stereo not drawn) [AS1, astragaloside I]
Regulatory effects on the tryptophan transport across the Caco2 cell monolayer [1]: had regulatory effects on the tryptophan transport
* (regulatory effect on tryptophan transport) ([1]; compound 0.01 μM): ↑
Percentage (tryptophan transport, control = 100) ([1]; compound 0.01 μM): 248.49%
Transport rate (tryptophan) ([1]; compound 0.01 μM): 22.220 ± 0.8695 nmol/min
* (regulatory effect on tryptophan transport) ([1]; compound 0.1 μM): ↑
Percentage (tryptophan transport, control = 100) ([1]; compound 0.1 μM): 258.67%
Transport rate (tryptophan) ([1]; compound 0.1 μM): 23.130 ± 1.3120 nmol/min
* (regulatory effect on tryptophan transport) ([1]; compound 1 μM): ↑
Percentage (tryptophan transport, control = 100) ([1]; compound 1 μM): 178.93%
Transport rate (tryptophan) ([1]; compound 1 μM): 16.000 ± 1.3190 nmol/min
Tryptophan transport rate ([1]; concentration from 0.01 μM to 0.1 mM): increased
Folate uptake versus control group ([2]; 0.1 μM, FIG. 4): increased folate uptake
* (regulatory effect on folate uptake) [2]: ↑
Percentage (folate uptake vs own control) [2]: 150.00%
Uptake rate (folate) [2]: 79.710 ± 3.0410 pmol/mg/min
Regulatory effects on the arginine transport across the Caco2 cell monolayer [3]: had regulatory effects on the arginine transport
* (regulatory effect on arginine transport) ([3]; compound 0.001 μM): ↑
Percentage (arginine transport, control = 100) ([3]; compound 0.001 μM): 133.37%
Transport rate (arginine) ([3]; compound 0.001 μM): 14.2554 ± 0.5851 nmol/min
* (regulatory effect on arginine transport) ([3]; compound 0.01 μM): ↑
Percentage (arginine transport, control = 100) ([3]; compound 0.01 μM): 151.91%
Transport rate (arginine) ([3]; compound 0.01 μM): 16.2324 ± 0.7215 nmol/min
* (regulatory effect on arginine transport) ([3]; compound 0.1 μM): ↑
Percentage (arginine transport, control = 100) ([3]; compound 0.1 μM): 147.21%
Transport rate (arginine) ([3]; compound 0.1 μM): 15.7300 ± 1.1250 nmol/min
Arginine transport rate ([3]; concentration from 0.001 μM to 0.1 μM): increased
Regulatory effects on the glucose uptake of the Caco2 cells [4]: had regulatory effects on the glucose uptake
* (regulatory effect on glucose uptake) ([4]; compound 0.01 μM): ↑
Percentage (glucose uptake, control = 100) ([4]; compound 0.01 μM): 146.75%
Uptake rate (glucose) ([4]; compound 0.01 μM): 9.3510 ± 1.1370 nmol/mg/min
* (regulatory effect on glucose uptake) ([4]; compound 0.1 μM): ↑
Percentage (glucose uptake, control = 100) ([4]; compound 0.1 μM): 122.82%
Uptake rate (glucose) ([4]; compound 0.1 μM): 7.8260 ± 1.7510 nmol/mg/min
Percentage (glucose uptake, control = 100) ([4]; compound 1 μM): 98.52%
Uptake rate (glucose) ([4]; compound 1 μM): 6.2780 ± 1.9930 nmol/mg/min
